Reference: patent US5281628A, “9-amino-7-(substituted)-6-demethyl-6-deoxytetracyclines” (American Cyanamid Company, priority 1991, dated 1994)
Structures can show the parent of a compound that is named as a salt.

Columns and labels:
Format in all cases: cell-based
[1] = system: tetracycline sensitive and resistant Gram-positive and Gram-negative bacteria; assay: In vitro antibacterial evaluation, statements on the whole panel
Experimental: (§1) The minimum inhibitory concentration (MIC), the lowest concentration of the antibiotic which inhibits growth of the test organism, is determined by the microtiter broth dilution method using 0.1 ml Muller-Hinton II broth (Baltimore Biological Laboratories) per well. A suitable oxygen scavenger (i.e., cysteine or dithiothreitol) is added to the assay medium for the testing of compounds according to Formula I because of the sensitivity of those compounds to oxidation. An inoculum level of 1-5×10^5 CFU/ml and a range of antibiotic concentrations (32 0.004 μg/ml) are used.

P. aeruginosa ATCC 27853 = assay: MIC, microtiter broth dilution; conditions: Pseudomonas aeruginosa, ATCC27853, 18 h
Experimental: as §1

E. faecalis ATCC 29212 = assay: MIC, microtiter broth dilution; conditions: Enterococcus faecalis, ATCC29212, 18 h
Experimental: as §1

[2] = system: S. aureus IVES 1983 (methicillin-resistant); assay: MIC, microtiter broth dilution; conditions: Staphylococcus aureus, 18 h
Experimental: as §1

[3] = system: E. coli UBMS 89-2 (tetracycline-sensitive); assay: MIC, microtiter broth dilution; conditions: Escherichia coli, 18 h
Experimental: as §1

E. coli ATCC 25922 = assay: MIC, microtiter broth dilution; conditions: Escherichia coli, ATCC25922, 18 h
Experimental: as §1

[4] = system: S. aureus UBMS 90-3 (tetracycline-sensitive); assay: MIC, microtiter broth dilution; conditions: Staphylococcus aureus, 18 h
Experimental: as §1

[5] = system: S. aureus IVES 2943 (methicillin-resistant); assay: MIC, microtiter broth dilution; conditions: Staphylococcus aureus, 18 h
Experimental: as §1

M. morganii NEMC 87-119 = assay: MIC, microtiter broth dilution; conditions: Morganella morganii, NEMC87119, 18 h
Experimental: as §1

[6] = system: S. haemolyticus AVAH 88-3; assay: MIC, microtiter broth dilution; conditions: Staphylococcus haemolyticus, AVAH883, 18 h; S. haemolyticus AVAH 88-3; in the presence of cysteine (0.05%); read-out: MIC
Experimental: as §1

[7] = system: E. coli UBMS 90-5 (tetracycline-sensitive); assay: MIC, microtiter broth dilution; conditions: Escherichia coli, 18 h
Experimental: as §1

S. marcescens FPOR 87-33 = assay: MIC, microtiter broth dilution; conditions: Serratia marcescens, FPOR8733, 18 h
Experimental: as §1

E. coli UBMS 88-1 (tetB) = assay: microbe, parasite or virus in culture; conditions: Escherichia coli, 18 h
Experimental: as §1

[8] = system: S. aureus UBMS 88-7 (tetK); assay: microbe, parasite or virus in culture; conditions: Staphylococcus aureus, 18 h
Experimental: as §1

[9] = system: S. aureus UBMS 88-5 (tetM); assay: microbe, parasite or virus in culture; conditions: Staphylococcus aureus, 18 h
Experimental: as §1

[10] = system: S. aureus UBMS 88-4 (tetracycline-sensitive); assay: MIC, microtiter broth dilution; conditions: Staphylococcus aureus, 18 h, no cysteine stated
Experimental: as §1

[11] = system: E. coli UBMS 88-2 (tetracycline-sensitive); assay: MIC, microtiter broth dilution; conditions: Escherichia coli, 18 h, no cysteine stated
Experimental: as §1

S. aureus ATCC 29213 = assay: MIC, microtiter broth dilution; conditions: Staphylococcus aureus, ATCC29213, 18 h, no cysteine stated
Experimental: as §1

[12] = system: X. maltophilia FPOR 87-210; assay: MIC, microtiter broth dilution; conditions: Stenotrophomonas maltophilia, FPOR87210, 18 h, no cysteine stated
Experimental: as §1

E. coli UBMS 90-4 (tetM) = assay: MIC, microtiter broth dilution; conditions: Escherichia coli, 18 h
Experimental: as §1

[13] = in the presence of cysteine (0.05%)

## CCN(CC)c1cc(N)c(O)c2c1C[C@H]1C[C@H]3[C@H](N(C)C)C(O)=C(C(N)=O)C(=O)[C@@]3(O)C(O)=C1C2=O [C, 9-Amino-7-(diethylamino)-6-demethyl-6-deoxytetracycline sulfate]
[1]; comparator D
  antibacterial activity versus D: enhancement of antibacterial activity
P. aeruginosa ATCC 27853; [13]
  MIC: 8 µg/mL
E. faecalis ATCC 29212; [13]
  MIC: 0.12 µg/mL
[2]; [13]
  MIC: 0.25 µg/mL
[3]; [13]
  MIC: 0.5 µg/mL
E. coli ATCC 25922; [13]
  MIC: 0.5 µg/mL
[4]; [13]
  MIC: 0.03 µg/mL
[5]; [13]
  MIC: 0.25 µg/mL
M. morganii NEMC 87-119; [13]
  MIC: 2 µg/mL
[6]
  MIC: 0.12 µg/mL
[7]; [13]
  MIC: 1 µg/mL
S. marcescens FPOR 87-33; [13]
  MIC: 4 µg/mL

## CCN(CC)c1ccc(O)c2c1C[C@H]1C[C@H]3[C@H](N(C)C)C(O)=C(C(N)=O)C(=O)[C@@]3(O)C(O)=C1C2=O [D, 7-(Diethylamino)-6-demethyl-6-deoxytetracycline sulfate]
E. coli UBMS 88-1 (tetB)
  MIC: 32 µg/mL
[8]
  MIC: 0.12 µg/mL
[9]
  MIC: 16 µg/mL
[1]; in the presence of cysteine versus without
  Antibacterial potency in the presence of cysteine: not enhanced
P. aeruginosa ATCC 27853; no cysteine stated
  MIC: 32 µg/mL
E. faecalis ATCC 29212; no cysteine stated
  MIC: 8 µg/mL
[2]; no cysteine stated
  MIC: 8 µg/mL
[3]; no cysteine stated
  MIC: 4 µg/mL
E. coli ATCC 25922; no cysteine stated
  MIC: 1 µg/mL
[10]
  MIC: 0.03 µg/mL
[4]; no cysteine stated
  MIC: 0.03 µg/mL
[5]; no cysteine stated
  MIC: 8 µg/mL
M. morganii NEMC 87-119; no cysteine stated
  MIC: 32 µg/mL
[11]
  MIC: 2 µg/mL
S. aureus ATCC 29213
  MIC: < 0.015 µg/mL
[7]; no cysteine stated
  MIC: 2 µg/mL
[12]
  MIC: 0.25 µg/mL
S. marcescens FPOR 87-33; no cysteine stated
  MIC: 32 µg/mL
E. coli UBMS 90-4 (tetM)
  MIC: > 32 µg/mL
